# Reference: US9676782B2, “Substituted pyrazolo[1,5-a]pyrazines as negative allosteric modulators of metabotropic glutamate receptor 3” (Vanderbilt University, priority 2014, dated 2017)
# Read-outs that look alike come from different tables or passages of the source.
# Assays:
# rat mGlu5 = rat mGlu5 (Rattus norvegicus (Rat), UniProt P31424); test: mGlu5 Ca2+ flux assay; assay type: cell-based; settings: for EC50 / IC50: read-out: rat mGlu5 EC50 or IC50; for Fold selectivity (mGlu3 vs. mGlu5): ratio of rat mGlu5 EC50 or IC50 to rat mGlu3 IC50; for IC50 / Emax at 30 µM: compound noted as NAM or partial antagonist (PAnt) at mGlu5; for IC50: glutamate EC80; for Emax at 30 µM: response at 30 μM as % of maximal glutamate response, read-out: rat mGlu5 Glu max (%)
# Chain of rat mGlu5 (P31424 21-1203): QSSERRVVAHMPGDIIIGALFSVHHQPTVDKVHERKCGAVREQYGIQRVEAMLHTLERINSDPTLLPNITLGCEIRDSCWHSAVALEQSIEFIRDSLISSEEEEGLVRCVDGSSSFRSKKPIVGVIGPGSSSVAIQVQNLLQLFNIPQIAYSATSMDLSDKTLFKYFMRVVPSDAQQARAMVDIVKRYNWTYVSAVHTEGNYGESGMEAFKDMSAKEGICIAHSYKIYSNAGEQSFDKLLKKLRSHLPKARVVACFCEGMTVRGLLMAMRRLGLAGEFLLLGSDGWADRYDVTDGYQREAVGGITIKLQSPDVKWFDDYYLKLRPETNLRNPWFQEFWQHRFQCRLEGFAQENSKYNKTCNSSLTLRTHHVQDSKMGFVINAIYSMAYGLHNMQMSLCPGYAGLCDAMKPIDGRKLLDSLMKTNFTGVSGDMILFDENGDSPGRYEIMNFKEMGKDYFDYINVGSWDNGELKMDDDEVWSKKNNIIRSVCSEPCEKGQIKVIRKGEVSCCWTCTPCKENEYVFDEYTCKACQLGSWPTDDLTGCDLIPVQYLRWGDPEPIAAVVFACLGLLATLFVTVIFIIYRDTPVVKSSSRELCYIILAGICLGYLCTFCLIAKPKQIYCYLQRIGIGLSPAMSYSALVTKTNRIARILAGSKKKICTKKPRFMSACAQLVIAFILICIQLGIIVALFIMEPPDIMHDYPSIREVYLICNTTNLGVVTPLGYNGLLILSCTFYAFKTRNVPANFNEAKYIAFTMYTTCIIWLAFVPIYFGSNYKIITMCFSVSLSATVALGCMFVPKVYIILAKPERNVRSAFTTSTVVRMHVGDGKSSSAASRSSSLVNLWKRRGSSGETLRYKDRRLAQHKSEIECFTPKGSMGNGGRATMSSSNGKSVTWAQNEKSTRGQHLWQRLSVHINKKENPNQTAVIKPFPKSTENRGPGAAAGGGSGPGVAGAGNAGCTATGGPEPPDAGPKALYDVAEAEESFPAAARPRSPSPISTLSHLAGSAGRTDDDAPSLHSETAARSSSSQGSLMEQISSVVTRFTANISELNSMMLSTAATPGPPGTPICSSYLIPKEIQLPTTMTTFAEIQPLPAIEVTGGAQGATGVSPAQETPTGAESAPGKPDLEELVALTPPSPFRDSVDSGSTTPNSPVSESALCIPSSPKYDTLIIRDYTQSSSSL
# Outline: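 Ca2+ flux read kinetically (FDSS7000) after overnight culture at 37° C/5% CO2 and a 5 min room-temperature buffer step following dye removal. Signals expressed per well as F/F0 and normalized to peak glutamate response; EC50 fitted by free 4-parameter logistic, three replicates per concentration equally weighted.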
# rat mGlu3 = rat mGlu3 (Rattus norvegicus (Rat), UniProt P31422); test: mGlu3 Ca2+ flux assay; assay type: cell-based; settings: for IC50: read-out: rat mGlu3 IC50; for remaining activity at 30 µM: amplitude of response at 30 μM test compound as % of maximal response to glutamate, read-out: rat mGlu3 Glu max (%)
# Chain of rat mGlu3 (P31422 23-879): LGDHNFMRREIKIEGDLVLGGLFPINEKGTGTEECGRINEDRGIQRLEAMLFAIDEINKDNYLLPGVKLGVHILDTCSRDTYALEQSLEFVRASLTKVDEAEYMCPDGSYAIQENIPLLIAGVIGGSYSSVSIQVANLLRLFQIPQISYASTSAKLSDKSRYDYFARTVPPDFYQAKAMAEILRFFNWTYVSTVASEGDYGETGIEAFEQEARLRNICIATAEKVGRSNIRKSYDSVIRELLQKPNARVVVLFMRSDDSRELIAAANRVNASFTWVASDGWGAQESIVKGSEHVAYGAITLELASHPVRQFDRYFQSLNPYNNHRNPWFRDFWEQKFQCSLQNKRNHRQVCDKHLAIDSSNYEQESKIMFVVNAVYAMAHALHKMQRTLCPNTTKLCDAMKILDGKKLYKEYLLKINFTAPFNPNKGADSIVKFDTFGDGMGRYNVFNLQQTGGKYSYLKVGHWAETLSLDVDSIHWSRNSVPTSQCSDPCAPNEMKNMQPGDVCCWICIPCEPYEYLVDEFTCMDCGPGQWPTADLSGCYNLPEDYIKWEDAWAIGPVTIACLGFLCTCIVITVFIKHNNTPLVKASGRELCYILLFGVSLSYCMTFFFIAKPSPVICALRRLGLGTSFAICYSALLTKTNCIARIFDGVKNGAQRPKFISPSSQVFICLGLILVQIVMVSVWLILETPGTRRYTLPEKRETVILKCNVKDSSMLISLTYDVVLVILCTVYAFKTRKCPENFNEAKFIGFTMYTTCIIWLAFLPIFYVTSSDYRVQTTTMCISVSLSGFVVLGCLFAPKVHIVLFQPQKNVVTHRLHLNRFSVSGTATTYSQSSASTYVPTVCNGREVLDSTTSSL
# Outline: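 This calcium mobilization assay used rat mGlu3 cells cultured overnight (37° C., 5% CO2) and read on the FDSS7000 after a 10 minute room-temperature incubation in 20 μL assay buffer. Each of 360 readings per well was divided by its initial value (F/F0). Potency came from fitting normalized responses against log concentration with an unconstrained 4 parameter logistic equation, weighting triplicate points equally.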
# [1] = NAM potency, decrease of glutamate EC80 response, >30,000 = no measurable activity, >10,000 = no plateau
SMILES,EC50 (rat mGlu5) [µM],IC50 (rat mGlu3) [µM],Fold selectivity (mGlu3 vs. mGlu5) (rat mGlu5),remaining activity at 30 µM (rat mGlu3) [%],IC50 (rat mGlu3; [1]) [µM],IC50 (rat mGlu5) [µM],Emax at 30 µM (rat mGlu5) [%]
"Cc1cnc(N2CCn3nc(CNc4ccc(OC(F)F)cc4F)cc3C2=O)s1 [Compound 137, 2-(((4-(difluoromethoxy)-2-fluorophenyl)amino)methyl)-5-(5-methylthiazol-2-yl)-6,7-dihydropyrazolo[1,5-a]pyrazin-4(5H)-one]",> 30,> 30,,,,,
"O=C1c2cc(CNc3ccc(OC(F)F)cc3F)nn2CCN1c1cccc(F)n1 [Compound 138, 2-(((4-(difluoromethoxy)-2-fluorophenyl)amino)methyl)-5-(6-fluoropyridin-2-yl)-6,7-dihydropyrazolo[1,5-a]pyrazin-4(5H)-one]",> 30,0.821,>36,2.05,,,
"O=C1c2cc(CNc3ccc(OC(F)F)cc3F)nn2CCN1c1cc(Cl)ccn1 [Compound 139, 5-(4-chloropyridin-2-yl)-2-(((4-(difluoromethoxy)-2-fluorophenyl)amino)methyl)-6,7-dihydropyrazolo[1,5-a]pyrazin-4(5H)-one]",> 30,,>17,2.59,1.76,,
"Cc1nc(N2CCn3nc(CNc4ccc(OC(F)F)cc4F)cc3C2=O)cs1 [Compound 140, 2-(((4-(difluoromethoxy)-2-fluorophenyl)amino)methyl)-5-(2-methylthiazol-4-yl)-6,7-dihydropyrazolo[1,5-a]pyrazin-4(5H)-one]",> 30,,>48,2.43,0.624,,
"O=C1c2cc(CNc3ccc(OC(F)F)cc3F)nn2CCN1c1ccc(F)cc1F [Compound 141, 2-(((4-(difluoromethoxy)-2-fluorophenyl)amino)methyl)-5-(2,4-difluorophenyl)-6,7-dihydropyrazolo[1,5-a]pyrazin-4(5H)-one]",> 30,,>42,1.87,0.706,,
"COc1cccc(N2CCn3nc(CNc4ccc(OC(F)F)cc4F)cc3C2=O)c1 [Compound 142, 2-(((4-(difluoromethoxy)-2-fluorophenyl)amino)methyl)-5-(3-methoxyphenyl)-6,7-dihydropyrazolo[1,5-a]pyrazin-4(5H)-one]",> 30,,>34,1.5,0.863,,
"O=C1c2cc(CNc3ccc(OC(F)F)cc3F)nn2CCN1c1ncccc1F [Compound 143, 2-(((4-(difluoromethoxy)-2-fluorophenyl)amino)methyl)-5-(3-fluoropyridin-2-yl)-6,7-dihydropyrazolo[1,5-a]pyrazin-4(5H)-one]",> 30,,>31,1.31,0.95,,
"Cc1ccc(N2CCn3nc(CNc4ccc(OC(F)F)cc4F)cc3C2=O)nc1 [Compound 144, 2-(((4-(difluoromethoxy)-2-fluorophenyl)amino)methyl)-5-(5-methylpyridin-2-yl)-6,7-dihydropyrazolo[1,5-a]pyrazin-4(5H)-one]",> 30,,>17,5.68,1.74,,
"O=C1c2cc(CNc3ccc(OC(F)F)cc3F)nn2CCN1c1ccc(F)c(F)c1 [Compound 145, 2-(((4-(difluoromethoxy)-2-fluorophenyl)amino)methyl)-5-(3,4-difluorophenyl)-6,7-dihydropyrazolo[1,5-a]pyrazin-4(5H)-one]",> 30,,>37,2.55,0.8,,
"O=C1c2cc(CNc3ccc(OC(F)F)cc3F)nn2CCN1c1ccc(F)cn1 [Compound 146, 2-(((4-(difluoromethoxy)-2-fluorophenyl)amino)methyl)-5-(5-fluoropyridin-2-yl)-6,7-dihydropyrazolo[1,5-a]pyrazin-4(5H)-one]",> 30,,>51,2.03,0.578,,
"COc1cc(F)cc(N2CCn3nc(CNc4ccc(OC(F)F)cc4F)cc3C2=O)c1 [Compound 147, 2-(((4-(difluoromethoxy)-2-fluorophenyl)amino)methyl)-5-(3-fluoro-5-methoxyphenyl)-6,7-dihydropyrazolo[1,5-a]pyrazin-4(5H)-one]",> 30,,>23,1.67,1.26,,
"O=C1c2cc(CNc3ccc(OC(F)F)cc3F)nn2CCN1c1ccc(Cl)cn1 [Compound 148, 5-(5-chloropyridin-2-yl)-2-(((4-(difluoromethoxy)-2-fluorophenyl)amino)methyl)-6,7-dihydropyrazolo[1,5-a]pyrazin-4(5H)-one]",> 30,,>32,3.97,0.93,,
"O=C1c2cc(CNc3ccc(OC(F)F)cc3F)nn2CCN1c1ccc(Cl)cc1F [Compound 149, 5-(4-chloro-2-fluorophenyl)-2-(((4-(difluoromethoxy)-2-fluorophenyl)amino)methyl)-6,7-dihydropyrazolo[1,5-a]pyrazin-4(5H)-one]",> 30,> 10,>3,25.8,,,
"O=C1c2cc(CNc3ccc(OC(F)F)cc3F)nn2CCN1c1cccc(Cl)c1 [Compound 150, 5-(3-chlorophenyl)-2-(((4-(difluoromethoxy)-2-fluorophenyl)amino)methyl)-6,7-dihydropyrazolo[1,5-a]pyrazin-4(5H)-one]",> 30,,>21,2.97,1.39,,
"O=C1c2cc(CNc3ccc(OC(F)F)cc3F)nn2CCN1c1ccccn1 [Compound 151, 2-(((4-(difluoromethoxy)-2-fluorophenyl)amino)methyl)-5-(pyridin-2-yl)-6,7-dihydropyrazolo[1,5-a]pyrazin-4(5H)-one]",> 30,,>31,1.14,0.943,,
"O=C1c2cc(CNc3ccc(OC(F)F)cc3F)nn2CCN1c1cc(F)cc(F)c1 [Compound 152, 2-(((4-(difluoromethoxy)-2-fluorophenyl)amino)methyl)-5-(3,5-difluorophenyl)-6,7-dihydropyrazolo[1,5-a]pyrazin-4(5H)-one]",> 30,,>28,2.23,1.07,,
"O=C1c2cc(CNc3ccc(OC(F)F)cc3F)nn2CCN1c1ccccc1F [Compound 153, 2-(((4-(difluoromethoxy)-2-fluorophenyl)amino)methyl)-5-(2-fluorophenyl)-6,7-dihydropyrazolo[1,5-a]pyrazin-4(5H)-one]",> 30,,>38,2.29,0.772,,
"O=C1c2cc(CNc3ccc(F)cn3)nn2CCN1c1ccc(F)cc1 [Compound 155, 5-(4-fluorophenyl)-2-(((5-fluoropyridin-2-yl)amino)methyl)-6,7-dihydropyrazolo[1,5-a]pyrazin-4(5H)-one]",,,>6.8,1.5,1.46,> 10,11.3
"O=C1c2cc(CNc3ccccn3)nn2CCN1c1ccc(F)cc1 [Compound 156, 5-(4-fluorophenyl)-2-((pyridin-2-ylamino)methyl)-6,7-dihydropyrazolo[1,5-a]pyrazin-4(5H)-one]",,,>3.1,-1.17,3.19,> 10,49.1
"Cc1cccc(NCc2cc3n(n2)CCN(c2ccc(F)cc2)C3=O)n1 [Compound 157, 5-(4-fluorophenyl)-2-(((6-methylpyridin-2-yl)amino)methyl)-6,7-dihydropyrazolo[1,5-a]pyrazin-4(5H)-one]",> 30,,>9.3,-0.19,3.21,,
"O=C1c2cc(CNc3ccc(Cl)cn3)nn2CCN1c1ccc(F)cc1 [Compound 158, 2-(((5-chloropyridin-2-yl)amino)methyl)-5-(4-fluorophenyl)-6,7-dihydropyrazolo[1,5-a]pyrazin-4(5H)-one]",,,4.02,1.27,0.602,2.42,73.6
"Cc1ccc(NCc2cc3n(n2)CCN(c2ccc(F)cc2)C3=O)nc1 [Compound 159, 5-(4-fluorophenyl)-2-(((5-methylpyridin-2-yl)amino)methyl)-6,7-dihydropyrazolo[1,5-a]pyrazin-4(5H)-one]",> 30,,>16,0.86,1.77,,
"Cc1cccnc1NCc1cc2n(n1)CCN(c1ccc(F)cc1)C2=O [Compound 160, 5-(4-fluorophenyl)-2-(((3-methylpyridin-2-yl)amino)methyl)-6,7-dihydropyrazolo[1,5-a]pyrazin-4(5H)-one]",> 30,,>6.3,0.18,4.7,,
